Publication PMC7160333, “Physiological Role of Glutamate Dehydrogenase in Cancer Cells” (Frontiers in Oncology, 2020)
Read-outs that look alike come from different tables or passages of the source.

System: MCF-7 cells
Conditions: for Duplication time: MCF-7, 2-D culture, n = 3; for Maximal cellular densities: reached at day 6
Protocol: All cancer and non-cancer cell lines used were purchased from ATCC and cultured in DMEM (Sigma-Aldrich) supplemented with 10% fetal bovine serum (Biowest, Nuaillé, France) and 10,000 U penicillin/streptomycin (Sigma-Aldrich) and placed under a humidified atmosphere of 5% CO2/95% air at 37°C.
Cell growth was followed by counting cellular density every 24 h during 7 to 8 days. […] The duplication time was determined by using the following equation: n=1/[3.32(logNF-logNI)]/(tF-tI) , where NF represents the number of cultured cells at the end of the exponential growth phase; NI represents the number of cells at the beginning of the growth curve; tF is the final time at which cells were harvested, and tI is the initial culture time. The specific growth rate μ was calculated from the slope of a semilogarithmic plot of cell densities in the exponential growth phase vs. time ([88]).

**Q.** For `Cl.N` [NH4Cl, Ammonium chloride], which Duplication time (+5 mM NH4Cl) is on record?
**A.** The Duplication time was 37 ± 2 h.

**Q.** What about the Duplication time (+10 mM NH4Cl) of the same compound?
**A.** Its Duplication time is 45 ± 6 h.

**Q.** And the Maximal cellular densities (MCF-7, +5 mM NH4Cl)?
**A.** Its Maximal cellular densities is 72 ± 6 ×10^3.

**Q.** What about the Maximal cellular densities (MCF-7, +10 mM NH4Cl) of the same compound?
**A.** Its Maximal cellular densities is 76 ± 5 ×10^3.
